From publication PMC8637440, “Structural Modifications Yield Novel Insights Into the Intriguing Pharmacodynamic Potential of Anti-inflammatory Nitro-Fatty Acids” (Frontiers in Pharmacology, 2021)

Key:
[1] = tested on: sEH; test: Cell-based sEH activity assay in COS-7 cells; set-up: species or system Afrikan green monkey; details: 10 µM, 24 h
Method: sEH activity in the cells was analyzed using a Soluble Epoxide Hydrolase Cell-Based Assay Kit (Cayman Chemical, #600090). […] Following incubation, the cells were processed according to the manufacturer’s instructions. The assay uses an internal signal subtraction to minimize potential errors generated by sEH-independent product formation due esterase mediated hydrolysis. The fluorescence intensity of the samples was measured in a plate reader at excitation/emission wavelengths of 330/465 nm sEH activity was calculated by the 6-methoxy-2-naphthaldehyde standard curve.
Suppl. Figure 2: Effects of NFA on sEH activity in COS-7 cells. sEH activity in COS-7 cells treated with NFA (10 µM) differ in (A) chain length and (B) Michael acceptor position and […]
Cells were lysed, and hydrolase activity was measured by Epoxy Fluor
7 lysis presented as mean + SD, n=2-3. […] OA, […]
oleic acid, she, soluble epoxide hydrolase.
(1 picture or pasted object on this page, not shown here)

[2] = target: T1, sEH (Homo sapiens, UniProt P34913); format: biochemical; set-up: purchased Cayman Chemicals #10011671; details: 100 nM
T1 sequence (P34913 1-555): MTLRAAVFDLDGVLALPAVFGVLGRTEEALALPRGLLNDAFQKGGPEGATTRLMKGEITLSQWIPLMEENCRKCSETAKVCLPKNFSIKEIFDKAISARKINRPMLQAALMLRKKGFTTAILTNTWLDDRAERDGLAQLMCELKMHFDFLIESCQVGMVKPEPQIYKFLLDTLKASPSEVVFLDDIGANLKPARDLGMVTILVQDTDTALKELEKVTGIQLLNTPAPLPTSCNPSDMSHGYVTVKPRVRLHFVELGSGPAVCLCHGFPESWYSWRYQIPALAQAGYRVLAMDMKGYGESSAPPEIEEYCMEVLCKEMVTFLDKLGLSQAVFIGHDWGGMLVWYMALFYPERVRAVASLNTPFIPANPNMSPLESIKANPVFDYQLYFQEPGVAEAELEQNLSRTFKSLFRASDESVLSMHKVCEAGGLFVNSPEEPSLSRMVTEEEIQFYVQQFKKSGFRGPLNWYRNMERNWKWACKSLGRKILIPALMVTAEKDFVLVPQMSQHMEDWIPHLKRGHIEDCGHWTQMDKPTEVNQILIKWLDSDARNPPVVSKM
Method: FIGURE 3 Effects of NFA on sEH activity. […] Data are the mean ± SEM of n = 3–7. […] The cells were lysed, and hydrolase activity was measured by Epoxy Fluor 7 lysis. […] Statistical significance was calculated by one-way ANOVA with Bonferroni post-test and multiple comparisons against the DMSO control.

Structure (SMILES): CCCCCCCC/C=C\CCCCCCCC(=O)O [OA, oleic acid, reference compound]
- inhibition of sEH activity in COS-7 cells [1]: strong suppressive effect
- inhibition of recombinant sEH [2]: strong suppressive effect
